Calls of active or inactive are those of the source.
How the values were obtained:
Assay type in all cases: functional
OVCAR-4 = test: Cytotoxicity against human OVCAR4 cells assessed as cell growth at 10 uM after 48 hrs by sulforhodamine B assay
Hs-578T = test: Cytotoxicity against human Hs 578T cells assessed as cell growth at 10 uM after 48 hrs by sulforhodamine B assay
SW-620 = test: Cytotoxicity against human SW620 cells assessed as cell growth at 10 uM after 48 hrs by sulforhodamine B assay
NCI-H226 = test: Cytotoxicity against human NCI-H226 cells assessed as cell growth at 10 uM after 48 hrs by sulforhodamine B assay
KM12 = test: Cytotoxicity against human KM12 cells assessed as cell growth at 10 uM after 48 hrs by sulforhodamine B assay
MDA-MB-435 = test: Cytotoxicity against human MDA-MB-435 cells assessed as cell growth at 10 uM after 48 hrs by sulforhodamine B assay
SNB-75 = test: Cytotoxicity against human SNB75 cells assessed as cell growth at 10 uM after 48 hrs by sulforhodamine B assay
SK-MEL-28 = test: Cytotoxicity against human SK-MEL-28 cells assessed as cell growth at 10 uM after 48 hrs by sulforhodamine B assay
A549 = test: Cytotoxicity against human A549 cells assessed as cell growth at 10 uM after 48 hrs by sulforhodamine B assay
NCI-H322M = test: Cytotoxicity against human NCI-H322M cells assessed as cell growth at 10 uM after 48 hrs by sulforhodamine B assay
T47D = test: Cytotoxicity against human T47D cells assessed as cell growth at 10 uM after 48 hrs by sulforhodamine B assay
SF-268 = test: Cytotoxicity against human SF268 cells assessed as cell growth at 10 uM after 48 hrs by sulforhodamine B assay
EKVX = test: Cytotoxicity against human EKVX cells assessed as cell growth at 10 uM after 48 hrs by sulforhodamine B assay
HL-60(TB) = test: Cytotoxicity against human HL-60(TB) cells assessed as cell growth at 10 uM after 48 hrs by sulforhodamine B assay
UO-31 = test: Cytotoxicity against human UO31 cells assessed as cell growth at 10 uM after 48 hrs by sulforhodamine B assay
OVCAR-8 = test: Cytotoxicity against human OVCAR8 cells assessed as cell growth at 10 uM after 48 hrs by sulforhodamine B assay
UACC-257 = test: Cytotoxicity against human UACC257 cells assessed as cell growth at 10 uM after 48 hrs by sulforhodamine B assay
HT-29 = test: Cytotoxicity against human HT-29 cells assessed as cell growth at 10 uM after 48 hrs by sulforhodamine B assay
MDA-MB-231 = test: Cytotoxicity against human MDA-MB-231 cells assessed as cell growth at 10 uM after 48 hrs by sulforhodamine B assay
BT-549 = test: Cytotoxicity against human BT549 cells assessed as cell growth at 10 uM after 48 hrs by sulforhodamine B assay
CCRF-CEM = test: Cytotoxicity against human CCRF-CEM cells assessed as cell growth at 10 uM after 48 hrs by sulforhodamine B assay
OVCAR-3 = test: Cytotoxicity against human OVCAR-3 cells assessed as cell growth at 10 uM after 48 hrs by sulforhodamine B assay
RXF 393 = test: Cytotoxicity against human RXF393 cells assessed as cell growth at 10 uM after 48 hrs by sulforhodamine B assay
SK-MEL-5 = test: Cytotoxicity against human SK-MEL-5 cells assessed as cell growth at 10 uM after 48 hrs by sulforhodamine B assay
LOX IMVI = test: Cytotoxicity against human LOXIMVI cells assessed as cell growth at 10 uM after 48 hrs by sulforhodamine B assay
RPMI-8226 = test: Cytotoxicity against human RPMI8226 cells assessed as cell growth at 10 uM after 48 hrs by sulforhodamine B assay
M14 = test: Cytotoxicity against human M14 cells assessed as cell growth at 10 uM after 48 hrs by sulforhodamine B assay
MOLT-4 = test: Cytotoxicity against human MOLT4 cells assessed as cell growth at 10 uM after 48 hrs by sulforhodamine B assay
SK-OV-3 = test: Cytotoxicity against human SKOV3 cells assessed as cell growth at 10 uM after 48 hrs by sulforhodamine B assay
OVCAR-5 = test: Cytotoxicity against human OVCAR5 cells assessed as cell growth at 10 uM after 48 hrs by sulforhodamine B assay
MCF7 = test: Cytotoxicity against human MCF7 cells assessed as cell growth at 10 uM after 48 hrs by sulforhodamine B assay
IGROV-1 = test: Cytotoxicity against human IGROV1 cells assessed as cell growth at 10 uM after 48 hrs by sulforhodamine B assay
SF-295 = test: Cytotoxicity against human SF295 cells assessed as cell growth at 10 uM after 48 hrs by sulforhodamine B assay
NCI-H522 = test: Cytotoxicity against human NCI-H522 cells assessed as cell growth at 10 uM after 48 hrs by sulforhodamine B assay
HCT-15 = test: Cytotoxicity against human HCT15 cells assessed as cell growth at 10 uM after 48 hrs by sulforhodamine B assay
U-251 = test: Cytotoxicity against human U251 cells assessed as cell growth at 10 uM after 48 hrs by sulforhodamine B assay
786-0 = test: Cytotoxicity against human 786-0 cells assessed as cell growth at 10 uM after 48 hrs by sulforhodamine B assay
DU-145 = test: Cytotoxicity against human DU145 cells assessed as cell growth at 10 uM after 48 hrs by sulforhodamine B assay
HCT-116 = test: Cytotoxicity against human HCT116 cells assessed as cell growth at 10 uM after 48 hrs by sulforhodamine B assay
COLO 205 = test: Cytotoxicity against human COLO205 cells assessed as cell growth at 10 uM after 48 hrs by sulforhodamine B assay
SR = test: Cytotoxicity against human SR cells assessed as cell growth at 10 uM after 48 hrs by sulforhodamine B assay
SK-MEL-2 = test: Cytotoxicity against human SK-MEL-2 cells assessed as cell growth at 10 uM after 48 hrs by sulforhodamine B assay
ACHN = test: Cytotoxicity against human ACHN cells assessed as cell growth at 10 uM after 48 hrs by sulforhodamine B assay
NCI-H460 = test: Cytotoxicity against human NCI-H460 cells assessed as cell growth at 10 uM after 48 hrs by sulforhodamine B assay
HOP-92 = test: Cytotoxicity against human HOP92 cells assessed as cell growth at 10 uM after 48 hrs by sulforhodamine B assay
SNB-19 = test: Cytotoxicity against human SNB19 cells assessed as cell growth at 10 uM after 48 hrs by sulforhodamine B assay
SF-539 = test: Cytotoxicity against human SF539 cells assessed as cell growth at 10 uM after 48 hrs by sulforhodamine B assay
A498 = test: Cytotoxicity against human A498 cells assessed as cell growth at 10 uM after 48 hrs by sulforhodamine B assay
SN12C = test: Cytotoxicity against human SN12C cells assessed as cell growth at 10 uM after 48 hrs by sulforhodamine B assay
NCI-H23 = test: Cytotoxicity against human NCI-H23 cells assessed as cell growth at 10 uM after 48 hrs by sulforhodamine B assay
K562 = test: Cytotoxicity against human K562 cells assessed as cell growth at 10 uM after 48 hrs by sulforhodamine B assay
UACC-62 = test: Cytotoxicity against human UACC62 cells assessed as cell growth at 10 uM after 48 hrs by sulforhodamine B assay
HOP-62 = test: Cytotoxicity against human HOP62 cells assessed as cell growth at 10 uM after 48 hrs by sulforhodamine B assay
HCC 2998 = test: Cytotoxicity against human HCC2998 cells assessed as cell growth at 10 uM after 48 hrs by sulforhodamine B assay
TK-10 = test: Cytotoxicity against human TK10 cells assessed as cell growth at 10 uM after 48 hrs by sulforhodamine B assay
Malme-3M = test: Cytotoxicity against human MALME-3M cells assessed as cell growth at 10 uM after 48 hrs by sulforhodamine B assay
MDA-MB-468 = test: Cytotoxicity against human MDA-MB-468 cells assessed as cell growth at 10 uM after 48 hrs by sulforhodamine B assay
PC-3 = test: Cytotoxicity against human PC3 cells assessed as cell growth at 10 uM after 48 hrs by sulforhodamine B assay

Measured: Activity

CCCc1cc(=O)oc2c(C)c(OCc3nnc(S)o3)ccc12
inactive: OVCAR-4 | Hs-578T | SW-620 | NCI-H226 | KM12 | MDA-MB-435 | SNB-75 | SK-MEL-28 | A549 | NCI-H322M | T47D | SF-268 | EKVX | HL-60(TB) | UO-31 | OVCAR-8 | UACC-257 | HT-29 | MDA-MB-231 | BT-549 | CCRF-CEM | OVCAR-3 | RXF 393 | SK-MEL-5 | LOX IMVI | RPMI-8226 | M14 | MOLT-4 | SK-OV-3 | OVCAR-5 | MCF7 | IGROV-1 | SF-295 | NCI-H522 | HCT-15 | U-251 | 786-0 | DU-145 | HCT-116 | COLO 205 | SR | SK-MEL-2 | ACHN | NCI-H460 | HOP-92 | SNB-19 | SF-539 | A498 | SN12C | NCI-H23 | K562 | UACC-62 | HOP-62 | HCC 2998 | TK-10 | Malme-3M | MDA-MB-468 | PC-3

Reference: ChEMBL document CHEMBL1240439, “Synthesis and docking studies of novel benzopyran-2-ones with anticancer activity” (2010)
